Laboratory results taken from patent EP0848957A1, “Fas LIGAND SOLUBILIZATION INHIBITOR” (KANEBO LTD., priority 1995, dated 1997).

What was measured:
[1] = system: hFas L/BHK-21 (BHK-21 cells in which human Fas L cDNA was transfected); assay: Test for inhibition of Fas L solubilization (sFas L in culture supernatant by sandwich-ELISA); assay type: cell-based; conditions: for inhibition at 5 µM: Homo sapiens, BHK-21, 24 h, incubated 24 hours at 37°C, read-out: aFas L secretion inhibition rate (%); for IC50: BHK-21, sFas L secretion inhibition at 5, 2.5, 1.25, 0.625 µM, probit method
Procedure: hFas L/BHK-21 (BHK-21 cells in which human Fas L cDNA was transfected)(3.5 x 10^5) was suspended in 1ml of RPMI 1640 culture medium containing 10% fetal bovine serum, and in 24 wells culture plate (Falcon 3047, Becton Dickenson Co., Ltd.) each test sample adjusted with RPMI 1640 containing 10% fetal bovine serum at the final concentration 5, 2.5, 1.25, and 0.625 µM was incubated under 5% carbon dioxide atmosphere at 37°C for 24 hours, to obtain a culture supernatant.
The concentration of sFas L in the supernatant thus obtained was quantitatively analyzed by the sandwich-ELISA method as shown below.
The concentration of anti Fas L antibody (NOK3)(see preparation 17) was adjusted to 10µg/ml with 0.05M sodium carbonate-sodium hydrogen carbonate buffer solution (pH 9.6), and each 50µl thereof was poured in each well of a 96-wells microplate (Immunolon 2, Dinatech Co., Ltd.) and left it overnight at 4°C to make the solid phase. Each well was washed twice with 300 µl of a washing solution consisting of a physiological saline solution adjusted at pH 7.4 with a phosphate buffer solution, containing 0.05% of Tween 20 (polyoxyethylene sorbitan monolaurate)(abbreviated as T-PBS), and then to it was added 300µl of PBS (pH 7.4) containing bovine serum albumin (abbreviated as BSA, Wako Chemical Co., Ltd), and it was left for 2 hours at 37°C to remove the supernatant.
Then, the culture supernatant (50µl) containing a test sample were added to each well, and incubated for one hour at room temperature. After incubation, each well was washed twice with 300µl of T-PBS (pH7.4).
The concentration of anti Fas L antibody (NOK1) labeled with biotin (see preparation 18) was adjusted to 5µg/ml by diluting with PBS (pH 7.4) containing 1% BSA, and 50µl thereof was added to the solution prepared above. The solution was reacted for one hour at room temperature, and washed twice with 300µl of T-PBS (pH 7.4).
And then, streptoavidin-peroxidase (Amasham Lab.) was diluted 1000 times with PBS (pH 7.4) containing 1% of BSA, and 50µl thereof was added to it. The solution was incubated for 30 minutes at room temparature and was washed twice with 300µ of T-PBS (pH 7.4).
Further, 100µl of 0.15M citric acid-sodium phosphate buffer solution (pH 5.0) containing hydrogen peroxide and o-phenylenediamine (former concentration:0.015 w/v%, latter concentration:0.2mg/ml) was added to each well and incubated for 10 minutes at room temperature.
After incubation, 50µl of 2 N sulfuric acid was added to each well to quench the reaction, and the absorbance at 490 nm was measured by Softmax (Molecular Device Co., Ltd.)
On the other hand, by measuring the absorbance of the sFas L solution of which the concentration was known, as a sample instead of the culture supernatant, the calibration curve was detected based on 4-logistic parameter analysis, and based on it the concentration (X) of sFas L in the culture supernatant was calculated.
As a control, by using the concentration (A) of sFas L in the culture supernatant in case that the test sample was not added, based on the concentration (X) of sFas L in the culture supernatant in case that the sample was added, sFas secretion inhibition rate (%) at 5µM was calculated by using the following formula sFas L secretion inhibition rate (%) = (1-X/A) x 100 [formula]

GVHD induced mouse [2] = assay: Recovery test of GVHD induced mouse; assay type: in vivo, CBF1 mice; conditions: 2mg / mouse / day subcutaneously every day for 2 weeks
Procedure: CBF1 mice (F1 mice of BALB/c and C57BL/6) were injected with splenocytes (5x10^7) of C57BL/6 mouse, and a week later were again injected with splenocytes 5x10^7 to induce GVHD into a mouse.
A test sample was suspended in 0.5% CMC solution (test sample 10mg vs the CMC solution 1ml), 2mg of the test sample / mouse / day was subcutaneously administered every day for 2 weeks beginning from injection of splenocytes to the above GVHD induced mice, and this group was compared with the GVHD induced group in which any test sample was not administered (no drug administered group) and the GVHD non-induced group (non-treated group).
The body weight of mice (g) was measured every week a week later after the first injection of splenocytes, for 6 weeks, and the total IgE amount (ng/ml) was measured every week a week later after the first injection of splenocytes, for 9 weeks, and the degree of GVHD was evaluated by change of day.

GVHD induced mouse [3] = assay: Prevention of the mortality of GVHD induced mouse; assay type: in vivo, CBF1 mouse; conditions: splenocytes 1x10^8; after the death of all mice of the drug non-administered group; 3 weeks observation
Procedure: GVHD was introduced into CBF1 mouse in the same manner as in Test example 2, except for the numbers of the injected splenocytes, 1x10^8, and the test sample administered group was compared with the drug non-administered group and the non-treated group.
The effect of test samples was evaluated by the mortality of mouse for 3 weeks after the first introduction of the splenocytes.

[4] = Toxicity after oral administration (mortality); assay type: in vivo; conditions: 3,000mg/kg:body weight, orally administered
Procedure: And a compound of the generic formula (I) or its pharmaceutically acceptable salt was low in toxicity. For example, when compound 4a ( 3,000mg/kg:body weight) was orally administered, the mortality was not found. Therefore, a compound of the generic formula (I) or its pharmaceutically acceptable salt is useful for preventing and treating the diseases in which apoptosis caused by binding the solubilized Fas L with Fas is considered to participate, for example, fulminant hepatitis, GVHD, AIDS, autoimmune diseases, etc.

## CNC(=O)[C@H](Cc1ccc(OC)cc1)NC(=O)[C@@H](CC(=O)NO)CC(C)C [Test sample A, [4-(N-hydroxyamino)-2(R)-isobutylsuccinyl]-L-O-methyltyrosine-N-methylamide]
[1]
  inhibition at 5 µM: 47%

## CNC(=O)[C@H](Cc1ccccc1)NC(=O)[C@H](CC(C)C)[C@H](CSc1ccccc1)C(=O)NO [Test sample B, [4-(N-hydroxyamino)-2(R)-isobutyl-3(S)-phenylthiomethylsuccinyl]-L-phenylalanine-N-methylamide]
[1]
  IC50: 2.2 µM
  inhibition at 5 µM: > 70%

## CNC(=O)[C@H](Cc1ccc(OC)cc1)NC(=O)[C@H](CC(C)C)[C@H](C)C(=O)NO [Test sample C, [4-(N-hydroxyamino)-2(R)-isobutyl-3(S)-methylsuccinyl]-L-O-methyltyrosine-N-methylamide]
[1]
  IC50: 1.5 µM
  inhibition at 5 µM: > 70%

## CNC(=O)[C@H](Cc1ccccc1)NC(=O)[C@H](CC(C)C)[C@H](CSc1cccs1)C(=O)NO [Test sample D, [4-(N-hydroxyamino)-2(R)-isobutyl-3(S)-(2-thienylthiomethyl)succinyl]-L-phenylalanine-N-methylamide]
[1]
  IC50: 1.6 µM
  inhibition at 5 µM: > 70%

## CNC(=O)[C@@H](NC(=O)[C@H](CC(C)C)[C@H](C)C(=O)NO)c1ccccc1 [Test sample E, [4-(N-hydroxyamino)-2(R)-isobutyl-3(S)-methylsuccinyl]-L-phenylglycine-N-methylamide]
[1]
  inhibition at 5 µM: 29%
GVHD induced mouse [2]; body weight measured weekly for 6 weeks
  decrease of body weight caused by the induced GVHD: clearly prohibited
GVHD induced mouse [2]; total IgE measured weekly for 9 weeks
  increase of total IgE amount caused by the induced GVHD: clearly prohibited
GVHD induced mouse [3]
  survival rate: 90%
[4]
  mortality: not found

## CNC(=O)[C@@H](NC(=O)[C@@H](CC(=O)NO)CC(C)C)c1ccc2ccccc2c1 [Test sample F, [4-(N-hydroxyamino)-2(R)-isobutylsuccinyl]-L-2-naphthylglycine-N-methylamide]
[1]
  inhibition at 5 µM: 35%

## NS(=O)(=O)c1ccc(CCNC(=O)[C@H](CC2CCCCC2)NC(=O)[C@H](CCCc2ccccc2)CC(=O)NO)cc1 [Test sample G, [4-(N-hydroxyamino)-2(R)-(3-phenylpropyl)succinyl]-L-3-cyclohexylalanine-N-[2-(4-sulfonylamidophenyl)ethyl]amide]
[1]
  IC50: 1.1 µM
  inhibition at 5 µM: > 70%

## CNC(=O)[C@H](Cc1cccc2c1CCCC2)NC(=O)[C@H](CC(C)C)C(C)C(=O)NO (stereo partly drawn) [Test sample H, [4-(N-hydroxyamino)-2(R)-isobutyl-3-methylsuccinyl]-L-3-(5,6,7,8-tetrahydro-1-naphthyl)alanine-N-methylamide]
[1]
  inhibition at 5 µM: 57%

## CNC(=O)[C@H](Cc1cccc2ccccc12)NC(=O)[C@H](CC(C)C)C(C)C(=O)NO (stereo partly drawn) [Test sample I, [4-(N-hydroxyamino)-2(R)-isobutyl-3-methylsuccinyl]-L-3-(1-naphthyl)alanine-N-methylamide]
[1]
  inhibition at 5 µM: 50%
